Key:
[1] = Nephrotoxicity in an in vivo mouse model; settings: result in words
[2] = system: MDR CHO cells (multidrug-resistant); assay: Doxorubicin growth inhibition, methylene blue staining method, multidrug-resistant cells; assay type: cell-based, Chinese hamster; settings: Cricetulus griseus, doxorubicin only, about 72 hours continuous exposure
Description: Multidrug-resistant cells lines are easily obtainable for in vitro determination of drug sensitization by compounds of the present invention, as well as other compounds with similar activity. These cell lines include NIH-OVCAR-3 (ATCC HTB161)., which is commercially available. Other cell lines can be readily developed in accordance with the methods described by Twentyman et al., Br. J. Cancer, 54, 253 (1986). This procedure selects for multidrug-resistant cells by culturing the parental drug sensitive cell line in the continued presence of a cytotoxic drug, for example, doxorubicin.
Drug sensitive cells will perish while multidrug-resistant cells will survive and grow despite the presence of the drug. Eventually, a multidrug-resistant cell population emerges and can be used in an assay system for the detection of agents which can modify the multidrug-resistance. Many cell lines are suitable as parental cell lines from which multidrug-resistant cells can be selected. […]
Equal numbers of cells of an anchorage dependent mammalian cell line are seeded in growth medium (e.g. alpha MEM plus 10% FBS) into a suitable culture vessel, e.g. plastic 96 well tissue culture plates. […] The amount of methylene blue dye in the wells can be measured spectrophotometrically by measuring absorbance at 600 nm using an electronic ELISA plate spectrophotmeter (Minireader II, Dynatech Laboratories, Alexandria, VA). […]

[3] = system: Parental CHO cells (Drug Sensitive); assay: Doxorubicin growth inhibition, methylene blue staining method, parental drug-sensitive cells; assay type: cell-based, Chinese hamster; settings: Cricetulus griseus, doxorubicin only, about 72 hours continuous exposure
Protocol: Equal numbers of cells of an anchorage dependent mammalian cell line are seeded in growth medium (e.g. alpha MEM plus 10% FBS) into a suitable culture vessel, e.g. plastic 96 well tissue culture plates. A cytotoxic drug (e.g. doxorubicin) is added to the cells in the dishes at various concentrations ranging between 0 and 100 uM. Following about 72 hours of continuous exposure to the cytotoxic agent, the growth medium is decanted and the cells are washed with a suitable buffer, e.g. phosphate buffered saline (PBS). About 2 ml of a solution of 2% methylene blue (dissolve methylene blue in a solution of about 50% ethanol in water) is added to the cells on the dishes. The dye is allowed to contact the cells for about 2 minutes. Excess dye is washed away with cold water and the plates are air dried. The dye stained cells are then solubilized by adding an equal volume to all wells of a solution of a detergent, e.g. 1% N-lauroyl-sarcosine. The amount of dye remaining in the wells directly correlates witht he number of cells in the well. The amount of methylene blue dye in the wells can be measured spectrophotometrically by measuring absorbance at 600 nm using an electronic ELISA plate spectrophotmeter (Minireader II, Dynatech Laboratories, Alexandria, VA). […]

Row | SMILES | Nephrotoxicity [1] | IC50 [2] [µM] | IC50 [3] [µM]
1 | C/C=C/C[C@@H](C)[C@@H](O)[C@H]1C(=O)N[C@@H](CC)C(=O)N(C)CC(=O)N(C)[C@@H](CC(C)C)C(=O)N[C@@H](C(C)C)C(=O)N(C)[C@@H](CC)C(=O)N[C@@H](C)C(=O)N[C@H](C)C(=O)N(C)[C@@H](CC(C)C)C(=O)N(C)[C@@H](CC(C)C)C(=O)N(C)[C@@H](C(C)C)C(=O)N1C [6-MeAbu] | lack the nephrotoxic side effects | – | –
2 | C/C=C/C[C@@H](C)[C@@H](O)[C@H]1C(=O)N[C@@H](CC)C(=O)N(C)CC(=O)N(C)[C@@H](CC(C)C)C(=O)N[C@@H](C(C)C)C(=O)N(C)[C@@H](C)C(=O)N[C@@H](C)C(=O)N[C@H](C)C(=O)N(C)[C@@H](CC(C)C)C(=O)N(C)[C@@H](CC(C)C)C(=O)N(C)[C@@H](C(C)C)C(=O)N1C [6-MeAla, Cyclo[-((2S,3R,4R,6E)-3-Hydroxy-4-methyl-2-methylamino-6-octenoyl)-L-2-aminobutyryl-sarcosyl-N-methyl-L-leucyl-Valyl-N-methyl-L-alanyl-L-alanyl-D-alanyl-N-methyl-L-leucyl-N-methyl-L-leucyl-N-methyl-L-valyl]] | lack the nephrotoxic side effects | – | –
3 | COc1cccc2c1C(=O)c1c(O)c3c(c(O)c1C2=O)C[C@@](O)(C(=O)CO)C[C@@H]3O[C@H]1C[C@H](N)[C@H](O)[C@H](C)O1 [Doxorubicin, doxorubicin] | – | 11.3 ± 0.51 | 0.17 ± 0.01
